Literature values as cited in patent US11369619B2, “Composition for curing migraine headaches” (priority 2014, dated 2022).

Experiments:
[1] = taken orally, dosages of several hundred milligrams per day
male mice = conditions: intravenous
migraine = conditions: topical administration

Question: With `C[C@@H]1C[C@H]2[C@@H]3CCC4=CC(=O)C=C[C@]4(C)[C@@]3(F)[C@@H](O)C[C@]2(C)[C@@]1(O)C(=O)COP(=O)(O)O` [Dexamethasone phosphate] as the molecule, how does the solubility in water read?
Answer: practically insoluble in water

Question: For `Cc1ncc(C[n+]2csc(CCO)c2C)c(N)n1` [thiamine], which adverse effects [1] is on record?
Answer: no reports of adverse effects

Question: With `C[C@@H]1C[C@H]2[C@@H]3CCC4=CC(=O)C=C[C@]4(C)[C@@]3(F)[C@@H](O)C[C@]2(C)[C@@]1(O)C(=O)COP(=O)(O)O` [dexamethasone sodium phosphate] as the molecule, how does the LD50 (male mice) read?
Answer: 794 mg/kg

Question: With `CCN(CC)CC(=O)Nc1c(C)cccc1C` [lidocaine] as the molecule, how does the “patients in whom treatment was effective” value (migraine) read?
Answer: about 55%
